Measured values reported in US9549965B2, “Pharmaceutical composition for treating a microbial infection” (HELPERBY THERAPEUTICS LIMITED, priority 2010, dated 2017).
Structures can show the parent of a compound that is named as a salt.

Experiments:
[1] = test system: log phase E. coli; assay: MIC against log phase E. coli; assay type: cell-based, Escherichia coli
Procedure: (§1) Escherichia coli K12; Gram negative; Reference strain.
(§2) The above-described overnight cultures were diluted (1000×) with iso-sensitest broth. The cultures were then incubated at 37° C. with shaking for 1-2 hours to reach log CFU 6, which served as log phase cultures.
(§3) The bactericidal activity of the drugs against log phase cultures were determined by minimal inhibitory concentration (MIC) of the drugs, which is defined as the lowest concentration which inhibits visible growth. Different concentrations of each test compound were incubated with the log-phase cultures in 96 well plates for 24 hours. Bactericidal activity was then examined by taking a spectrophotometer reading (using a plate reader) at 405 nm.

[2] = test system: stationary phase E. coli; assay: Bactericidal activity against stationary phase E. coli (CFU counts); assay type: cell-based, Escherichia coli; conditions: for log reduction at 6.25 µg/mL / log reduction at 12.5 µg/mL / log reduction at 25 µg/mL: Escherichia coli, read-out: Log kill
Procedure: as §1
(§4) Bacteria were grown in 10 ml of nutrient broth (No. 2 (Oxoid)) overnight at 37° C., with continuous shaking at 120 rpm. The overnight cultures were diluted (1000×) in 100 ml of growth medium and then incubated without shaking for 10 days. Viability of the bacteria was estimated by colony forming unit (CFU) counts at 2 hour intervals at the first 24 hours and at 12-24 hours afterwards. From serial 10-fold dilutions of the experimental cultures, 100 μl samples were added to triplicate plates of nutrient agar plates (Oxoid) and blood agar plates (Oxoid). Colony forming units (CFU) were counted after incubation of the plates at 37° C. for 24 hours.
(§5) Cultures incubated for more than 24 hours are in the stationary phase. For drug screening, 5-6 day old stationary phase cultures were used.
(§6) Different concentrations of each test compound were incubated with stationary phase cultures (5-6 day cultures) in 96 well plates for 24 or 48 hours. Bactericidal activity was then determined by taking CFU counts of the resulting cultures, as described above.

[3] = test system: log phase E. coli; assay: Chequerboard analysis with polymyxin E against log phase E. coli; assay type: cell-based, Escherichia coli; conditions: for MIC: Escherichia coli
Procedure: as §1, §2, §3

[4] = test system: stationary phase S. aureus; assay: Bactericidal activity against stationary phase S. aureus (CFU counts); assay type: cell-based, Staphylococcus aureus; conditions: Staphylococcus aureus, read-out: Log Kill; for log reduction at 6.25 µg/mL: 6.25 μg/ml; for log reduction at 12.5 µg/mL: 12.5 μg/ml; for log reduction at 25 µg/mL: 25 μg/ml
Procedure: Staphylococcus aureus (Oxford strain); Gram positive; Reference strain.
as §4, §5, §6

[5] = test system: persistent E. coli; assay: Bactericidal activity against persistent E. coli selected by gentamicin; assay type: cell-based, Escherichia coli; conditions: Escherichia coli, read-out: Log Kill
Procedure: as §1
An antibiotic (gentamicin) was added to 5-6 day stationary-phase cultures to the final concentration of 50 to 100 μg/ml for 24 hours. After 24 hours of antibiotic treatment, the cells are washed 3 times with phosphate buffered saline (PBS), and then resuspended in PBS. The surviving bacterial cells are used as persisters. Viability is estimated by CFU counts. The persisters were then used in measurements of bactericidal activity for test compounds.
Different concentrations of each test compound were incubated with the (persister) cell suspension in 96 well plates for various periods of time (24 and 48 hours). Bactericidal activity was then determined by taking CFU counts of the resulting cultures, as described above.

[6] = Escherichia coli, read-out: MIC

**Q.** Which MIC [1] does the source give for `CCCCCCc1ccc(O)cc1O.Nc1c2ccccc2nc2ccccc12` [Acrisorcin] here?
**A.** The MIC was “— (— signifies MIC higher than 50 μg/ml)”.

**Q.** What about the Log Kill ([2]; 6.25 μg/ml) of the same molecule?
**A.** Its Log Kill is 6.14.

**Q.** What about the Log Kill ([2]; 12.50 μg/ml) of the same molecule?
**A.** The Log Kill was 6.14.

**Q.** What about the Log Kill ([2]; 25.00 μg/ml) of the same molecule?
**A.** Its Log Kill is 6.14.

**Q.** How did the MIC [1, 6] turn out when `COc1cccc2c1C(=O)c1c(O)c3c(c(O)c1C2=O)C[C@@](O)(C(=O)CO)C[C@@H]3O[C@H]1C[C@H](N)[C@H](O)[C@H](C)O1` [Doxorubicin] was run?
**A.** Its MIC is greater than 50 µg/mL.

**Q.** And the log reduction at 6.25 µg/mL ([2]; 6.25 μg/ml)?
**A.** The log reduction at 6.25 µg/mL was 6.14.

**Q.** What about the log reduction at 12.5 µg/mL ([2]; 12.50 μg/ml) of the same molecule?
**A.** The log reduction at 12.5 µg/mL was 6.14.

**Q.** What about the log reduction at 25 µg/mL ([2]; 25.00 μg/ml) of the same molecule?
**A.** The log reduction at 25 µg/mL was 6.14.

**Q.** What does the source list for `CC(COc1ccccc1)N(CCCl)Cc1ccccc1` (stereo not drawn) [HT00800157, Phenoxybenzamine Hydrochloride]?
**A.** MIC ([3]; alone): > 64 µg/mL; MIC ([3]; in combination with polymyxin E at 0.06 μg/ml): 64 µg/mL; MIC ([3]; in combination with polymyxin E at 0.25 μg/ml): 1 µg/mL; spectrophotometer reading ([3]; HT00800157 1 μg/ml alone): 1.52; spectrophotometer reading ([3]; HT00800157 2 μg/ml alone): 1.53; spectrophotometer reading ([3]; HT00800157 4 μg/ml alone): 1.60; spectrophotometer reading ([3]; HT00800157 8 μg/ml alone): 1.56; spectrophotometer reading ([3]; HT00800157 16 μg/ml alone): 1.56; spectrophotometer reading ([3]; HT00800157 32 μg/ml alone): 1.57; spectrophotometer reading ([3]; HT00800157 64 μg/ml alone): 1.60

**Q.** Which results are given for `Oc1ccc(O)cc1` [Hydroquinone]?
**A.** MIC [1, 6]: > 50 µg/mL; log reduction at 6.25 µg/mL [4]: 6.15; log reduction at 12.5 µg/mL [4]: 6.15; log reduction at 25 µg/mL [4]: 6.15; log reduction at 6.25 µg/mL ([2]; 6.25 μg/ml): 6.14; log reduction at 12.5 µg/mL ([2]; 12.50 μg/ml): 6.14; log reduction at 25 µg/mL ([2]; 25.00 μg/ml): 6.14

**Q.** How did the MIC [1, 6] turn out when `COC(=O)C1=C(C)NC(C)=C(C(=O)OCC(C)C)C1c1ccccc1[N+](=O)[O-]` (stereo not drawn) [Nisoldipine] was run?
**A.** Its MIC is greater than 50 µg/mL.

**Q.** And the log reduction at 6.25 µg/mL [4]?
**A.** The log reduction at 6.25 µg/mL was 0.

**Q.** What about the log reduction at 12.5 µg/mL [4] of the same molecule?
**A.** The log reduction at 12.5 µg/mL was 6.15.

**Q.** And the log reduction at 25 µg/mL [4]?
**A.** The log reduction at 25 µg/mL was 6.15.

**Q.** What does the source list for `C1CCC(C(CC2CCCCN2)C2CCCCC2)CC1` (stereo not drawn) [Perhexiline maleate]?
**A.** MIC [1, 6]: 10 µg/mL; log reduction at 6.25 µg/mL [4]: 6.15; log reduction at 12.5 µg/mL [4]: 6.15; log reduction at 25 µg/mL [4]: 6.15; log reduction at 6.25 µg/mL ([5]; 6.25 μg/ml): -0.01; log reduction at 12.5 µg/mL ([5]; 12.5 μg/ml): 0.04; log reduction at 25 µg/mL ([5]; 25 μg/ml): 6.21
